Experimental data taken from patent US20240368158A1, “KINASE MODULATORS, COMPOSITIONS COMPRISING THE KINASE MODULATOR, AND METHODS OF USING THE SAME” (BIOFRONT LTD, priority 2021, published 2024).

Key:
[1] = system: HPK1 p-SLP-76 in Jurkat cells; test: HPK1 p-SLP-76 inhibition assay in Jurkat cells (HTRF); format: cell-based; conditions: Homo sapiens, 4 h compound, anti-CD3 stimulation 20 min
Procedure: Before compound treatment, Jurkat cells were starved in PRMI-1640 medium supplemented with 0.5% FBS overnight. The cell density was adjusted to 1*10^7 cells/mL in assay medium (RPMI-1640 no phenol red with 0.5% FBS) and 16 uL cell suspension was transferred per well to a 384-well plate (Corning #3765). […] of test compound was prepared in assay medium and 4 uL was added per well to the 384-well plate. The plate was then incubated at 37° C., 5% CO2 for 4 h. Jurkat cells in 384-well plate were stimulated with anti-CD3 (BD Biosciences #555329, final conc. is 10 ug/mL) for 20 min at 37° C., 5% CO2 by adding 4 uL 6× antibody solution per well. Phospho-SLP76 HTRF kit was purchased from Cisbio (63ADK076PEH). 8 uL 4× Lysis Buffer was added to 384-well plate after anti-CD3 stimulation. The plate was centrifuged at 1,000 rpm for 1 min, shaken at 250 rpm for 60 min and centrifuged again at 1,000 rpm for 5 min. Afterwards the cell lysates were transferred to the assay plate (Greiner #784075) with 16 uL per well. 4 uL detection antibody mix per well prepared in Detection Buffer was added to the assay plate, followed by centrifugation at 1,000 rpm for 1 min and incubation at 25° C. overnight. The fluorescence emission at two different wavelengths (665 nm and 620 nm) was read by an HTRF compatible microplate reader and the IC50 value of the compound was calculated.

HPK1 = target: T1, HPK1 (Homo sapiens, UniProt Q92918); test: HPK1 enzyme inhibition assay (ADP-Glo); format: biochemical; conditions: MBP substrate, ATP
T1 construct: purchased Signal Chem M23-11G-10
T1 sequence (Q92918 1-346 limits assumed): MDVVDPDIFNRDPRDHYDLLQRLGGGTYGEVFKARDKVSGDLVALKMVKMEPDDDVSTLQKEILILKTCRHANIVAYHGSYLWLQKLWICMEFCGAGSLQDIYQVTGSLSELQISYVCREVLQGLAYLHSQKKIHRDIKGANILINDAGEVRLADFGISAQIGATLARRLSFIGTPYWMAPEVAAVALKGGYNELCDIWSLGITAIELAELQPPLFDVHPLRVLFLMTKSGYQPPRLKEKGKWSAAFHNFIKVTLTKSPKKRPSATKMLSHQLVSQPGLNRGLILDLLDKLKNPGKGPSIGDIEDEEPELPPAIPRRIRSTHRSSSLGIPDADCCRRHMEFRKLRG
Procedure: The compound was dissolved in 100% DMSO at the concentration of 10 mM. The HPK1 protein was purchased from Signal Chem (M23-11G-10). 2.5 μL per well of 2×HPK1 protein was added to assay plate containing the test compound, centrifuged at 1500 rpm for 1 minute, and then incubated at 25° C. for 60 minutes. MBP protein was purchased from Signal Chem (M42-51N) and ATP was purchased from Promega (V9102). The two were added 2.5 μL per well mixture of 2×MBP (0.2 ug/ul) and ATP (20 μM), centrifuged at 1500 rpm for 1 minute, then incubated at 25° C. for 60 minutes. Then added 5 μL of ADP-Glo from Promega (V9102) to the assay plate and depleted the unconsumed ATP for 60 minutes. Then centrifuged at 1500 rpm for 1 minute and incubated at 25° C. for 60 minutes. Finally, 10 μL of the kinase assay reagent from Promega (V9102) was added to the assay plate to convert ADP to ATP, centrifuged at 1500 rpm for 1 minute, incubate at 25° C. for 40 minutes. After 40 minutes incubation, the […] was determined. Based on the results, the IC50 value of the compound was calculated.

Row | SMILES | IC50 [1] [nM] | IC50 (HPK1) [nM]
1 | CCc1c[nH]c2ncc(-c3cccc(N4CCN(C(=O)CC56CC7CC(CC(C7)C5)C6)CC4=O)c3)c(Cl)c12 [Example 33, 4-(2-((1s,3s)-adamantan-1-yl)acetyl)-1-(3-(4-chloro-3-ethyl-1H-pyrrolo[2,3-b]pyridin-5-yl)phenyl)piperazin-2-one] | 3000 to 10000 | 10 to 100
2 | CCc1c[nH]c2ncc(-c3cccc(N4CCN(C(=O)CCCNC(=O)CC56CC7CC(CC(C7)C5)C6)CC4=O)c3)c(Cl)c12 [Example 34, 2-((3r,5r,7r)-adamantan-1-yl)-N-(4-(4-(3-(4-chloro-3-ethyl-1H-pyrrolo[2,3-b]pyridin-5-yl)phenyl)-3-oxopiperazin-1-yl)-4-oxobutyl)acetamide] | 3000 to 10000 | 10 to 100
3 | COCC(=O)N1CCN(c2cccc(-c3cnc4[nH]cc(C#Cc5ccccn5)c4c3Cl)c2)C(=O)C1 [Example 35, 1-(3-(4-chloro-3-(pyridin-2-ylethynyl)-1H-pyrrolo[2,3-b]pyridin-5-yl)phenyl)-4-(2-methoxyacetyl)piperazin-2-one] | 3000 to 10000 | 10 to 100
4 | COCC(=O)N1CCN(c2cccc(-c3cnc4[nH]cc(C#Cc5ncn(C)n5)c4c3Cl)c2)C(=O)C1 [Example 36, 1-(3-(4-chloro-3-((1-methyl-1H-1,2,4-triazol-3-yl)ethynyl)-1H-pyrrolo[2,3-b]pyridin-5-yl)phenyl)-4-(2-methoxyacetyl)piperazin-2-one] | > 10000 | 10 to 100
5 | CCc1c[nH]c2ncc(-c3cc(N4CCNCC4=O)ccc3CN(C)C)cc12 [Example 40, 1-(4-((dimethylamino)methyl)-3-(3-ethyl-1H-pyrrolo[2,3-b]pyridin-5-yl)phenyl)piperazin-2-one] | > 10000 | > 1000
6 | CCc1c[nH]c2ncc(-c3cc(N4CCNCC4=O)ccc3CNC)cc12 [Example 41, 1-(3-(3-ethyl-1H-pyrrolo[2,3-b]pyridin-5-yl)-4-((methylamino)methyl)phenyl)piperazin-2-one] | > 10000 | > 1000
7 | CCc1c[nH]c2ncc(-c3cccc(N4CCN(C(=O)[C@@H](N)C(C)C)CC4=O)c3)c(Cl)c12 [Example 42, 4-(L-valyl)-1-(3-(4-chloro-3-ethyl-1H-pyrrolo[2,3-b]pyridin-5-yl)phenyl)piperazin-2-one] | 3000 to 10000 | 10 to 100
8 | CCc1c[nH]c2ncc(-c3cccc(N4CCN(C(=O)CNc5ccc(C[C@@H](N)C(=O)O)cc5)CC4=O)c3)c(Cl)c12 [Example 46, (R)-2-amino-3-(4-((2-(4-(3-(4-chloro-3-ethyl-1H-pyrrolo[2,3-b]pyridin-5-yl)phenyl)-3-oxopiperazin-1-yl)-2-oxoethyl)amino)phenyl)propanoic acid] | 3000 to 10000 | ≤ 10
9 | CCc1c[nH]c2ncc(-c3cccc(N4CCN(C(=O)CC[C@H](NC(=O)c5ccc(NCc6cnc7nc(N)[nH]c(=O)c7n6)cc5)C(=O)O)CC4=O)c3)c(Cl)c12 [Example 47, (S)-2-(4-(((2-amino-4-oxo-3,4-dihydropteridin-6-yl)methyl)amino)benzamido)-5-(4-(3-(4-chloro-3-ethyl-1H-pyrrolo[2,3-b]pyridin-5-yl)phenyl)-3-oxopiperazin-1-yl)-5-oxopentanoic acid] | > 10000 | 10 to 100
10 | CCc1c[nH]c2ncc(-c3cccc(N4CCN(C(=O)CO[C@@H]5O[C@H](CO)[C@@H](O)[C@H](O)[C@H]5O)CC4=O)c3)c(Cl)c12 [Example 49, 1-(3-(4-chloro-3-ethyl-1H-pyrrolo[2,3-b]pyridin-5-yl)phenyl)-4-(2-(((2R,3R,4S,5S,6R)-3,4,5-trihydroxy-6-(hydroxymethyl)tetrahydro-2H-pyran-2-yl)oxy)acetyl)piperazin-2-one] | > 10000 | ≤ 10
11 | CN(C)CCCS(=O)(=O)N1CCN(c2cccc(-c3cnc4[nH]cc(C5CC5)c4c3Cl)c2)C(=O)C1 [Example 56, 1-(3-(4-chloro-3-cyclopropyl-1H-pyrrolo[2,3-b]pyridin-5-yl)phenyl)-4-((3-(dimethylamino)propyl)sulfonyl)piperazin-2-one] | 300 to 3000 | ≤ 10
12 | CC1CN(CCCS(=O)(=O)N2CCN(c3cccc(-c4cnc5[nH]cc(C6CC6)c5c4Cl)c3)C(=O)C2)C1 [Example 57, 1-(3-(4-chloro-3-cyclopropyl-1H-pyrrolo[2,3-b]pyridin-5-yl)phenyl)-4-((3-(3-methylazetidin-1-yl)propyl)sulfonyl)piperazin-2-one] | 300 to 3000 | ≤ 10
13 | O=C1CN(S(=O)(=O)CCCN2CC(F)C2)CCN1c1cccc(-c2cnc3[nH]cc(C4CC4)c3c2Cl)c1 [Example 58, 1-(3-(4-chloro-3-cyclopropyl-1H-pyrrolo[2,3-b]pyridin-5-yl)phenyl)-4-((3-(3-fluoroazetidin-1-yl)propyl)sulfonyl)piperazin-2-one] | 300 to 3000 | ≤ 10

The remaining lines, values ahead:

Row | IC50 [1] [nM] | IC50 (HPK1) [nM] | SMILES
14 | 300 to 3000 | ≤ 10 | CCc1c[nH]c2ncc(-c3cccc(N4CCN(C(=O)CN(C)C)CC4=O)c3)c(Cl)c12 [Example 31, 1-(3-(4-chloro-3-ethyl-1H-pyrrolo[2,3-b]pyridin-5-yl)phenyl)-4-(dimethylglycyl)piperazin-2-one]
15 | ≤ 300 | ≤ 10 | COCC(=O)N1CCN(c2cccc(-c3cnc4[nH]cc(C5CC5)c4c3Cl)c2)C(=O)C1 [Example 32, 1-(3-(4-chloro-3-cyclopropyl-1H-pyrrolo[2,3-b]pyridin-5-yl)phenyl)-4-(2-methoxyacetyl) piperazin-2-one]
16 | 300 to 3000 | 10 to 100 | COCCN1CCN(c2cccc(-c3cnc4[nH]cc(CC(F)F)c4c3Cl)c2)C(=O)C1 [Example 37, 1-(3-(4-chloro-3-(2,2-difluoroethyl)-1H-pyrrolo[2,3-b]pyridin-5-yl)phenyl)-4-(2-methoxyethyl)piperazin-2-one]
17 | 300 to 3000 | ≤ 10 | COCC(=O)N1CCN(c2cccc(-c3cnc4[nH]cc(CC(F)F)c4c3Cl)c2)C(=O)C1 [Example 38, 1-(3-(4-chloro-3-(2,2-difluoroethyl)-1H-pyrrolo[2,3-b]pyridin-5-yl)phenyl)-4-(2-methoxyacetyl)piperazin-2-one]
18 | 300 to 3000 | ≤ 10 | COCCN1CCN(c2cccc(-c3cnc4[nH]cc(C5CC5)c4c3Cl)c2)C(=O)C1 [Example 39, 1-(3-(4-chloro-3-cyclopropyl-1H-pyrrolo[2,3-b]pyridin-5-yl)phenyl)-4-(2-methoxyethyl)piperazin-2-one]
19 | 300 to 3000 | ≤ 10 | CS(=O)(=O)N1CCN(c2cccc(-c3cnc4[nH]cc(CC(F)F)c4c3Cl)c2)C(=O)C1 [Example 51, 1-(3-(4-chloro-3-(2,2-difluoroethyl)-1H-pyrrolo[2,3-b]pyridin-5-yl)phenyl)-4-(methylsulfonyl)piperazin-2-one]
20 | 300 to 3000 | ≤ 10 | CCc1c[nH]c2ncc(-c3cccc(N4CCN(S(C)(=O)=O)CC4=O)c3)c(Cl)c12 [Example 52, 1-(3-(4-chloro-3-ethyl-1H-pyrrolo[2,3-b]pyridin-5-yl)phenyl)-4-(methylsulfonyl) piperazin-2-one]
21 | 300 to 3000 | ≤ 10 | COCCS(=O)(=O)N1CCN(c2cccc(-c3cnc4[nH]cc(C5CC5)c4c3Cl)c2)C(=O)C1 [Example 54, 1-(3-(4-chloro-3-cyclopropyl-1H-pyrrolo[2,3-b]pyridin-5-yl)phenyl)-4-((2-methoxyethyl)sulfonyl)piperazin-2-one]
22 | 300 to 3000 | ≤ 10 | O=C1CN(S(=O)(=O)CCCN2CCOCC2)CCN1c1cccc(-c2cnc3[nH]cc(C4CC4)c3c2Cl)c1 [Example 55, 1-(3-(4-chloro-3-cyclopropyl-1H-pyrrolo[2,3-b]pyridin-5-yl)phenyl)-4-((3-morpholinopropyl)sulfonyl)piperazin-2-one]
